Data taken from article PMC4522657, “Identification of a DYRK1A Inhibitor that Induces Degradation of the Target Kinase using Co-chaperone CDC37 fused with Luciferase nanoKAZ” (Scientific Reports, 2015).

Legend:
Assay in all cases: Kinase panel, CaNDY 1 µM
Format in all cases: biochemical
Details in all cases: CaNDY 1 µM relative to DMSO
[1] = molecular target: T1, ACK (Homo sapiens, UniProt Q07912)
T1 construct: purchased Carna Biosciences
Procedure, shortened: (§1)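 Baculovirus-expressed human kinases (full length, amino-terminal GST, glutathione-Sepharose purified) were incubated with compound for 1 h at RT in 1% DMSO. Phosphorylated and unphosphorylated substrate were resolved by off-chip mobility shift to give percent inhibition.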

[2] = molecular target: T2, ALK(L1196M) (Homo sapiens, UniProt Q9UM73, L1196M)
T2 construct: purchased Carna Biosciences
Procedure, shortened: as §1

[3] = molecular target: T3, ARG (Homo sapiens, UniProt P42684)
T3 construct: purchased Carna Biosciences
Procedure, shortened: as §1

[4] = molecular target: T4, BMX (Homo sapiens, UniProt P51813)
T4 construct: purchased Carna Biosciences
Procedure, shortened: as §1

[5] = molecular target: T5, BRK (Homo sapiens, UniProt Q13882)
T5 construct: purchased Carna Biosciences
Procedure, shortened: as §1

[6] = molecular target: T6, CDK6/CycD3 (Homo sapiens, UniProt Q00534)
T6 construct: purchased Carna Biosciences
Procedure, shortened: as §1

[7] = molecular target: T7, CDK7/CycH/MAT1 (Homo sapiens, UniProt P50613)
T7 construct: purchased Carna Biosciences
Procedure, shortened: as §1

[8] = molecular target: T8, CaMK4 (Homo sapiens, UniProt Q16566)
T8 construct: purchased Carna Biosciences
Procedure, shortened: as §1

[9] = molecular target: T9, DDR1 (Homo sapiens, UniProt Q08345)
T9 construct: purchased Carna Biosciences
Procedure, shortened: as §1

[10] = molecular target: T10, DLK_Cascade (Homo sapiens, UniProt Q12852)
T10 construct: purchased Carna Biosciences
Procedure, shortened: as §1

[11] = molecular target: T11, DYRK2 (Homo sapiens, UniProt Q92630)
T11 construct: purchased Carna Biosciences
Procedure, shortened: as §1

[12] = molecular target: T12, EPHA5 (Homo sapiens, UniProt P54756)
T12 construct: purchased Carna Biosciences
Procedure, shortened: as §1

[13] = molecular target: T13, EPHB1 (Homo sapiens, UniProt P54762)
T13 construct: purchased Carna Biosciences
T13 sequence (P54762 18-984): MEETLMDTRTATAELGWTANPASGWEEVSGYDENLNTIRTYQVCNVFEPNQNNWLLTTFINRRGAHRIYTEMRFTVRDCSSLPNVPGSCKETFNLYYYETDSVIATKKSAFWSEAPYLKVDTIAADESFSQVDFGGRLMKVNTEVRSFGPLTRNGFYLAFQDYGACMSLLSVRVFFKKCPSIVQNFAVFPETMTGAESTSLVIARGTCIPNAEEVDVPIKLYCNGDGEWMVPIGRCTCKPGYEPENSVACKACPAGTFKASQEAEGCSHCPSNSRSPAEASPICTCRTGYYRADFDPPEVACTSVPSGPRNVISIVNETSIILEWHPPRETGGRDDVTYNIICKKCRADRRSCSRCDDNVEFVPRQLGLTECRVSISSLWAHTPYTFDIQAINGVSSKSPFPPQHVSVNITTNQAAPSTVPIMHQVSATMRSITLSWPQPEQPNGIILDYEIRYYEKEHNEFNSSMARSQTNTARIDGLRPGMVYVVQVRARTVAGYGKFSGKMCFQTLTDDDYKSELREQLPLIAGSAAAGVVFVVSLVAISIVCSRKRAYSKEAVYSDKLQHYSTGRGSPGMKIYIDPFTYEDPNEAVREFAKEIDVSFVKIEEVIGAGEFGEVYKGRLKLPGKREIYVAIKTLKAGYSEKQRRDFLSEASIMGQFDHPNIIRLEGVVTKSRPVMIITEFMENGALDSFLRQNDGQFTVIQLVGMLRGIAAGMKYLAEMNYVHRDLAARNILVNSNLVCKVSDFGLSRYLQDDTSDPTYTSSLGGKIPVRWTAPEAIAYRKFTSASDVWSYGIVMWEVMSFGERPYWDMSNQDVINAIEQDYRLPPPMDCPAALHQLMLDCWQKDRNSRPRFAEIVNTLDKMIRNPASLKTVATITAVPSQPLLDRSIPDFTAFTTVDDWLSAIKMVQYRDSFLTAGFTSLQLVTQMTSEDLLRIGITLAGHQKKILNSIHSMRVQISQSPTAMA
Procedure, shortened: as §1

[14] = molecular target: T14, FLT3 (Homo sapiens, UniProt P36888)
T14 construct: purchased Carna Biosciences
Procedure, shortened: as §1

[15] = molecular target: T15, FMS (Homo sapiens, UniProt P07333)
T15 construct: purchased Carna Biosciences
Procedure, shortened: as §1

[16] = molecular target: T16, IKKβ (Homo sapiens, UniProt O14920)
T16 construct: purchased Carna Biosciences
T16 sequence (O14920 whole entry): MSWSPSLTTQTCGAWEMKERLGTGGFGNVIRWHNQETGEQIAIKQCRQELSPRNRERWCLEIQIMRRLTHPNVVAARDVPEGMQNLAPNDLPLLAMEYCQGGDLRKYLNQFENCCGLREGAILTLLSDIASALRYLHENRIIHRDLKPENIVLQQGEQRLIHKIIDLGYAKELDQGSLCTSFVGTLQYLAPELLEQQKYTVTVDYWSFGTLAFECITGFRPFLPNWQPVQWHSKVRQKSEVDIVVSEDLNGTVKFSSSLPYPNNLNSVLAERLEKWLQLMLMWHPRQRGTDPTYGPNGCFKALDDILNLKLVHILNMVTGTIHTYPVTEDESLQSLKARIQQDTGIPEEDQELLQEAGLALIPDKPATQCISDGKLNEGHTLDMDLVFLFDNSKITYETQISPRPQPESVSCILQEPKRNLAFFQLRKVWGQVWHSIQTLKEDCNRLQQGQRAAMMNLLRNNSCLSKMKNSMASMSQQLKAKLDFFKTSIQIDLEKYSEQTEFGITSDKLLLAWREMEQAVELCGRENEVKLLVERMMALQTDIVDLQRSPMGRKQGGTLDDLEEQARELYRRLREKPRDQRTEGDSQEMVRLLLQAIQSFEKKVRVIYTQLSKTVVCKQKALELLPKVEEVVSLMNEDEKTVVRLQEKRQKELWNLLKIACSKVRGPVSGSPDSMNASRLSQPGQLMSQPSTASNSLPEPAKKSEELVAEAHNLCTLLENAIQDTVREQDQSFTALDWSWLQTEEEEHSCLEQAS
Procedure, shortened: as §1

[17] = molecular target: T17, ITK (Homo sapiens, UniProt Q08881)
T17 construct: purchased Carna Biosciences
Procedure, shortened: as §1

[18] = molecular target: T18, JAK3 (Homo sapiens, UniProt P52333)
T18 construct: purchased Carna Biosciences
Procedure, shortened: as §1

[19] = molecular target: T19, LATS2 (Homo sapiens, UniProt Q9NRM7)
T19 construct: purchased Carna Biosciences
Procedure, shortened: as §1

[20] = molecular target: T20, LCK (Homo sapiens, UniProt P06239)
T20 construct: purchased Carna Biosciences
Procedure, shortened: as §1

[21] = molecular target: T21, MSK2 (Homo sapiens, UniProt O75676)
T21 construct: purchased Carna Biosciences
Procedure, shortened: as §1

[22] = molecular target: T22, NEK2 (Homo sapiens, UniProt P51955)
T22 construct: purchased Carna Biosciences
Procedure, shortened: as §1

[23] = molecular target: T23, NEK9 (Homo sapiens, UniProt Q8TD19)
T23 construct: purchased Carna Biosciences
Procedure, shortened: as §1

[24] = molecular target: T24, PAK4 (Homo sapiens, UniProt O96013)
T24 construct: purchased Carna Biosciences
Procedure, shortened: as §1

[25] = molecular target: T25, PDGFRβ (Homo sapiens, UniProt P09619)
T25 construct: purchased Carna Biosciences
Procedure, shortened: as §1

[26] = molecular target: T26, PKCε (Homo sapiens, UniProt Q02156)
T26 construct: purchased Carna Biosciences
Procedure, shortened: as §1

[27] = molecular target: T27, PKCζ (Homo sapiens, UniProt Q05513)
T27 construct: purchased Carna Biosciences
Procedure, shortened: as §1

[28] = molecular target: T28, PKCη (Homo sapiens, UniProt P24723)
T28 construct: purchased Carna Biosciences
Procedure, shortened: as §1

[29] = molecular target: T29, PKN1 (Homo sapiens, UniProt Q16512)
T29 construct: purchased Carna Biosciences
Procedure, shortened: as §1

[30] = molecular target: T30, RET(M918T) (Homo sapiens, UniProt P07949, M918T)
T30 construct: purchased Carna Biosciences
T30 sequence (P07949 29-1114 M918T): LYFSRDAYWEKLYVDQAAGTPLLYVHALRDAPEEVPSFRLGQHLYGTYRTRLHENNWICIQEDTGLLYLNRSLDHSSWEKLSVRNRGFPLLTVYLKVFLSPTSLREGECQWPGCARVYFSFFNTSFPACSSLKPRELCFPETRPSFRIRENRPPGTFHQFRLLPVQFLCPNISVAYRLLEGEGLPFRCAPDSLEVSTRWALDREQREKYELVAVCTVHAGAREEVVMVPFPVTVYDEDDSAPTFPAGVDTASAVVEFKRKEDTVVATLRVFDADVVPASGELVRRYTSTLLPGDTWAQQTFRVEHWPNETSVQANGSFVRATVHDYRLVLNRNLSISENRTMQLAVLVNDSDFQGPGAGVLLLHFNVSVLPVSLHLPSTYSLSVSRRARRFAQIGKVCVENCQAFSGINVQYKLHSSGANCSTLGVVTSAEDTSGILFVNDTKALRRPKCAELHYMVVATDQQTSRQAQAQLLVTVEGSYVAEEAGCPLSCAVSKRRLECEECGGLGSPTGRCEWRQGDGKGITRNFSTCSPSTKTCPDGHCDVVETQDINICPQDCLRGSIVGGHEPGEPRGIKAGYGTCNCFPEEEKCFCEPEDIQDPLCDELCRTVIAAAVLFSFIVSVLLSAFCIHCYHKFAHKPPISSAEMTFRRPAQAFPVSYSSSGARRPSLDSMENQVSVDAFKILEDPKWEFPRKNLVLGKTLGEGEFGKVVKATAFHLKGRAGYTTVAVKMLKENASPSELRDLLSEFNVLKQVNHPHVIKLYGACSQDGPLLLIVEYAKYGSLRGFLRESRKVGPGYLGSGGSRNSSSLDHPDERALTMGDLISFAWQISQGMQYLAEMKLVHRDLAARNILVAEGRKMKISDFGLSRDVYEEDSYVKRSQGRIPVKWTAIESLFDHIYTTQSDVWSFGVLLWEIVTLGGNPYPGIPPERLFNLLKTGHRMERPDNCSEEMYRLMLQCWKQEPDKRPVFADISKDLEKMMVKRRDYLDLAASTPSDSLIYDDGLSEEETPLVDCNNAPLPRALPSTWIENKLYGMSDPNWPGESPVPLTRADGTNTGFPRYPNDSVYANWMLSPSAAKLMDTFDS
Procedure, shortened: as §1

[31] = molecular target: T31, SIK (Homo sapiens, UniProt P57059)
T31 construct: purchased Carna Biosciences
Procedure, shortened: as §1

[32] = molecular target: T32, SPHK2 (Homo sapiens, UniProt Q9NRA0)
T32 construct: purchased Carna Biosciences
Procedure, shortened: as §1

[33] = molecular target: T33, SRM (Homo sapiens, UniProt Q9H3Y6)
T33 construct: purchased Carna Biosciences
T33 sequence (Q9H3Y6 whole entry): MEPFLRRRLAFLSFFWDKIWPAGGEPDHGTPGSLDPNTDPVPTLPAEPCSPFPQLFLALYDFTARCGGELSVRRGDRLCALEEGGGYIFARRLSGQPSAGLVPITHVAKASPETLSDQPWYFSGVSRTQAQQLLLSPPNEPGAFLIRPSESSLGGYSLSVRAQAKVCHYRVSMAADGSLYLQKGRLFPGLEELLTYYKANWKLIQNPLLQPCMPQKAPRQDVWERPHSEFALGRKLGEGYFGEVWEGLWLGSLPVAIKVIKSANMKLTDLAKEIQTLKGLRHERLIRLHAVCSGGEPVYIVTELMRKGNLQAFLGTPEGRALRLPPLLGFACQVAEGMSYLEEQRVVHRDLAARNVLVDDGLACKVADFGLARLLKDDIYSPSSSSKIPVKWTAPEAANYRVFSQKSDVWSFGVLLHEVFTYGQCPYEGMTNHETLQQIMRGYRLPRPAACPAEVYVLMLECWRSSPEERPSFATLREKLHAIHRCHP
Procedure, shortened: as §1

[34] = molecular target: T34, TNIK (Homo sapiens, UniProt Q9UKE5)
T34 construct: purchased Carna Biosciences
T34 sequence (Q9UKE5 whole entry): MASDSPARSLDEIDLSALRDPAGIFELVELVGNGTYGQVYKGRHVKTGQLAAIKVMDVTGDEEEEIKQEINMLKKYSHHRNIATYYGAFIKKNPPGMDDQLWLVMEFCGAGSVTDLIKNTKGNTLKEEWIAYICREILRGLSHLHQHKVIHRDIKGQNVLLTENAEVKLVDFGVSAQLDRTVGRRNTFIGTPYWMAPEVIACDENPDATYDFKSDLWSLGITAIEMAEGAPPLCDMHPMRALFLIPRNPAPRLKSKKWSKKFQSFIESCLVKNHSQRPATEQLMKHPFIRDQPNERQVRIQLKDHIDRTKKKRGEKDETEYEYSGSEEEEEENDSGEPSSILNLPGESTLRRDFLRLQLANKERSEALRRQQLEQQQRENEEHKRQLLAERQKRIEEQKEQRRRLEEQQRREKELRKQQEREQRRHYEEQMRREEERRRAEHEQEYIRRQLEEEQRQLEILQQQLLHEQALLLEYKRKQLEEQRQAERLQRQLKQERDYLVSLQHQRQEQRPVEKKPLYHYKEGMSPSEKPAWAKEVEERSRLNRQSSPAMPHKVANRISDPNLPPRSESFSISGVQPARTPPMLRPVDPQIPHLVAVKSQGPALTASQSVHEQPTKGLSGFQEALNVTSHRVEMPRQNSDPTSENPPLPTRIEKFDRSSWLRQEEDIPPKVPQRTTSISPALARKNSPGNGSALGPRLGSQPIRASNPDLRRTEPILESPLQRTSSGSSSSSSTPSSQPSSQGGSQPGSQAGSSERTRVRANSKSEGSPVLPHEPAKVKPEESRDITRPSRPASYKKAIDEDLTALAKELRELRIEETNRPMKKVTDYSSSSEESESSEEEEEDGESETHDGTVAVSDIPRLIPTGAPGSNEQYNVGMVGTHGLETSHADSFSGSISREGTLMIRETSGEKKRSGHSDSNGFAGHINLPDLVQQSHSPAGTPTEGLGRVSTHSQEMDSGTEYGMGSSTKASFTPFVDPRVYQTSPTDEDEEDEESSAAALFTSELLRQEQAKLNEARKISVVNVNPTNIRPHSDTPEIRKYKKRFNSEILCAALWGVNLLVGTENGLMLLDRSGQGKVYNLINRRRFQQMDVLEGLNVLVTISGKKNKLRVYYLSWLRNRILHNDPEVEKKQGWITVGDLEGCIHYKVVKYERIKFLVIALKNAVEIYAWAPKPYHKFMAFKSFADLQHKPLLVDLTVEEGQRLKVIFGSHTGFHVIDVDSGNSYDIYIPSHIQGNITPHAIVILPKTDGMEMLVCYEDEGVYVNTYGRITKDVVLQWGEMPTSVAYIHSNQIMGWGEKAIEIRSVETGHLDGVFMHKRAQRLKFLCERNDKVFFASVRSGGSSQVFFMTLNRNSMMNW
Procedure, shortened: as §1

[35] = molecular target: T35, TSSK3 (Homo sapiens, UniProt Q96PN8)
T35 construct: purchased Carna Biosciences
T35 sequence (Q96PN8 whole entry): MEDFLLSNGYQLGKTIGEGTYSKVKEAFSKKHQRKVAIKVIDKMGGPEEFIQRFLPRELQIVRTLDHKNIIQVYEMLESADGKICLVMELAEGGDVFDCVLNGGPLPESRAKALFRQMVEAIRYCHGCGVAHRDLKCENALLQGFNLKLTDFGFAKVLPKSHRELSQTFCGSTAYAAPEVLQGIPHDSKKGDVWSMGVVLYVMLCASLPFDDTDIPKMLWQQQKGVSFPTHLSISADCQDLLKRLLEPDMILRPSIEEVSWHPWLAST
Procedure, shortened: as §1

[36] = molecular target: T36, TYRO3 (Homo sapiens, UniProt Q06418)
T36 construct: purchased Carna Biosciences
Procedure, shortened: as §1

`[H]/N=C1/NC(=O)C(=Cc2ccc3c(c2)CCO3)S1` [CaNDY, (Z)-5-[(2,3-dihydrobenzofuran-5-yl)methylene]-2-iminothiazolidin-4-one] was tested, and the remaining activity at 1 µM [1] was 108%, the remaining activity at 1 µM [2] was 97.8% and the remaining activity at 1 µM [3] was 98.8%. It also gave a remaining activity at 1 µM [4] of 100%, a remaining activity at 1 µM [5] of 95.4% and a remaining activity at 1 µM [6] of 97.1%. The remaining activity at 1 µM [7] was 93.6%, the remaining activity at 1 µM [8] was 103% and the remaining activity at 1 µM [9] was 99.3%. The “%Activity” value [10] was 102.6%, the remaining activity at 1 µM [11] was 20.3% and the “%Activity” value [12] was 100.1%. It also gave a remaining activity at 1 µM [13] of 95.3%, a remaining activity at 1 µM [14] of 101% and a remaining activity at 1 µM [15] of 101%. For the same compound, the remaining activity at 1 µM [16] was 104%, the “%Activity” value [17] was 99.9% and the remaining activity at 1 µM [18] was 94.2%. For the same compound, the “%Activity” value [19] was 98.1%, the remaining activity at 1 µM [20] was 99% and the remaining activity at 1 µM [21] was 98.3%. For the same compound, the remaining activity at 1 µM [22] was 95.3%, the remaining activity at 1 µM [23] was 91.6% and the remaining activity at 1 µM [24] was 95%. The remaining activity at 1 µM [25] was 91.7%, the remaining activity at 1 µM [26] was 91.9% and the remaining activity at 1 µM [27] was 95.9%. For the same compound, the remaining activity at 1 µM [28] was 92.8%, the remaining activity at 1 µM [29] was 74.6% and the remaining activity at 1 µM [30] was 102%. For the same compound, the “%Activity” value [31] was 99.9%, the remaining activity at 1 µM [32] was 92.3% and the remaining activity at 1 µM [33] was 77%. For the same compound, the remaining activity at 1 µM [34] was 60%, the remaining activity at 1 µM [35] was 110% and the remaining activity at 1 µM [36] was 104%.
